Source: patent publication US8318954B2, “Cleavable carnitine compound” (Nou Life Sciences, Inc., priority 2006, dated 2012)
Where two headings read alike, the source gives them in different places. One block for each compound: values may come before it.

How the values were obtained:
C. elegans [1] = assay: Visual scoring of C. elegans after overnight incubation with compound in 24 well plate; type: in vivo; settings: DHLA1, 1:500 final concentration in well; 19 h incubation; L3/L4-stage N2 animals
Procedure: (§1) One 24 well microtiter plate was set up and incubated overnight on the shaker at 20 C. Each well on the plate was set up with 600 L3/L4-stage N2 animals in NGM with a 1:20 dilution of concentrated HB101 E. coli (food source) in a volume of 300 μl. Before the animal/HB101 solution was added, test compounds were pipetted into wells. For water controls and compound stocks/dilutions in water (DHLA, NAC) 6 μl was added to each well (1:50 dilutions). For DMSO controls and compound stocks/dilutions in DMSO (LA) 3 μl was added to each well (1:100 dilutions). No OD620 measurements were taken but the animals were visually scored after 19 h incubation.
as §1, with “at 20°” for “at 20”, “For” for “For water controls and compound stocks/dilutions in water (DHLA, NAC) 6 μl was added to each well (1:50 dilutions). For”, “DMSO (LC)” for “DMSO (LA)”, “h incubation).” for “h incubation.”
as §1, with “at 20°” for “at 20”, “For” for “For water controls and compound stocks/dilutions in water (DHLA, NAC) 6 μl was added to each well (1:50 dilutions). For”, “DMSO (LC)” for “DMSO (LA)”, “after 22” for “after 19”, “h incubation).” for “h incubation.”

C. elegans [2] = assay: Thermal avoidance (TAV) 3 step dose response testing; type: in vivo; settings: for effects indicating increased sensory sensitivity: 0%, 6%, 12% laser intensity
Description: The present invention includes a series of compounds that may be useful for increasing sensory neuron function in certain human neuropathological conditions. C. elegans contains a number of sensory neurons which are responsible for detecting a variety of external stimuli. One such stimulus (heat) can be detected and quantified in C. elegans by the use of thermal avoidance (TAV) technology available through NemaRx. The goal of this experiment was to provide an initial characterization of the compounds via TAV. Specifically, it was asked whether any of these compounds can lead to an increase in the thermal stimulus-induced behavioral response measured by TAV. N2 strain C. elegans animals were used for this project, which have ‘normal’, i.e. wildtype, sensory neuron function. Four compounds were received by NemaRx for TAV testing. These compounds were:
as §1
Dose Responses—setup: All of the wells from the 24 well plate were used for dose response testing and the entire well contents (600 animals) were used for each test. Prior to being placed on the agar plate for TAV testing each sample was processed as follows: • sample were transferred to glass tube containing 7 ml PBS • animals were allowed to settle for 5 minutes before most of the supernatant was removed (approx. 0.5 ml remaining in tube) • 7 ml PBS was then added, mixed and animals were allowed to settle for 5 minutes most of the supernatant was then removed • animals were removed and transferred to TAV testing plate (NRx Application pattern A) • plate was allowed to dry for 10 minutes (plate cover removed) and TAV testing was initiated. Per plate settings for the dose response experiments were as follows:
Dose Responses—general notes on analysis: A response of the animals to a thermal stimulus (laser) which is applied to the head region can be detected both by a change in the direction of movement, as well as by a change in speed occurring within the test interval where the stimulus is applied. • direction of movement. […] Animals that show a strong change in the direction of movement, i.e. reversals, are classified as LR5 responders. […] LR5 responders show a thermal intensity-dependent increase in the speed of movement (starting off with less than <prelaser speed at low intensities up to > pre-laser speed at high intensities)
The dose response experiments for the current project were carried out with 0% (background control), 6% and 12% settings of laser intensity. In practice, 6% is on the edge of laser intensity required to detect an increase in the number of LR5 responders. As such, 6% should be a useful intensity-setting to detect compound-induced increased sensitivity in the animals. The 12% setting was chosen because this intensity typically gives a robust increase in the number of LR5 responders.
Total Responder speeds, ‘LR1 Responder speeds’ and ‘LR5 Responder speeds’ are shown as normalized speeds to allow better comparison between samples. For normalization purposes the average pre-laser speed is set at 1.0 and responder speeds are calculated relative to this value.
One 24 well microtiter plate was set up and incubated overnight on the shaker at 20° C. Each well on the plate was set up with 600 L3/L4-stage N2 animals in NGM with a 1:20 dilution of concentrated HB101 E. coli (food source) in a volume of 300 μl. […]

C. elegans [3] = assay: Thermal avoidance (TAV) single intensity testing (6% laser intensity); type: in vivo
Procedure: (§2) One 24 well microtiter plate was set up and incubated overnight on the shaker at 20° C. Each well on the plate was set up with 600 L3/L4-stage N2 animals in NGM with a 1:20 dilution of concentrated HB101 E. coli (food source) in a volume of 300 μl. Before the animal/HB101 solution was added, test compounds were pipetted into wells. 3 μl each for the DMSO controls and LA dilutions were added to each well (1:100 dilutions). Controls and LA dilutions were done in triplicate (total of 9 wells).
6% Response tests—setup: All 9 wells from the 24 well plate were used for 6% testing and the entire well contents (600 animals) were used for each test. Prior to being placed on the agar plate for TAV testing each sample was processed as described for ‘Dose Responses’.
Dose Responses—general notes on analysis: Analysis similar as described in ‘Dose Responses’. In addition, ‘Response ratios’ as well as ‘A Speed responses’ both give measures of how much individual animals changed speed in response to the stimulus (additional information available upon request).
as §2, with “wells. 6” for “wells. 3”, “the water” for “the DMSO”, “and compound” for “and LA”, “well (1:50” for “well (1:100”, “of 15” for “of 9”
6% Response tests—setup: All 15 wells from the 24 well plate were used for 6% testing) and the entire well contents (600 animals) were used for each test. Prior to being placed on the agar plate for TAV testing each sample was processed as described for ‘Dose Responses’.
as §2, with “LC” for “LA”

mice and rats = settings: individually or in combination at high doses, mice and rats; cited from earlier work
rats [4] = settings: cited from earlier work
rats [5] = settings: 10 mg/kg cisplatin s.c. seven days, oral 300 mg/kg acetyl L-carnitine, 300 mg/kg carnitine mixture, 50 mg/kg α-lipoic acid; cited from earlier work
[6] = tested on: patients with chronic critical limb ischaemia; settings: 1.2 g/day i.v. infusion for two weeks with calcium heparin 25,000 U/day s.c.; over baseline; cited from earlier work
[7] = tested on: male patients with intermediate claudication; settings: cited from earlier work; for TcPCO: after treatment
C. elegans [8] = assay: Toxicity testing in C. elegans, 96 well plate, bacterial clearance (OD620); type: in vivo; settings: highest concentration tested, 8 mM, L1-stage N2 animals, OD620 up to 44 hours, HCl
Procedure: The work plan included a i) characterization of the compounds for toxicity in C. elegans and then, using subtoxic concentrations, a ii) characterization of compound effects on neuronal sensitivity as detected by TAV technology. Toxicity characterization follows a well established standard operating protocol used in previous toxicity-type assays in C. elegans. The initial TAV characterization of compound-mediated effects on C. elegans used a number of compound concentrations and incubation times that were selected by NemaRx as being most likely to detect any TAV-related effects that the compounds may have. […] 0% provides a ‘background’ measure, 6% typically gives intermediate TAV responses (and as such should provide a good starting point to detect compound-mediated increased TAV responses), and 12% usually gives robust responses. No obvious effects were detected for either of the four compounds. While the experimental setup provides a good first pass, the limitation lies in the relatively small number of animals that are assayed at each intensity (30). Subtle effects compound-mediated up-regulation at 6% laser intensity may be missed. • Single Intensity Testing: The two highest non-toxic compound concentrations for each of the four compounds were tested at 6% laser intensity. The number of datapoints collected was between 50-80 LA and >100 for the three other compounds. […] The experiment was carried out in quadruplicate. […] Stock Dilution Setup
Two 96 well microtiter plates set up which were incubated at 20 C (both 96 well plates were identical, i.e. the experiment was done in duplicate). Each well on the plates was set up with 100 L1-stage N2 animals in NGM with a 1:20 dilution of concentrated HB101 E. coli (food source) in a volume of 50 μl. Compounds (see below) were then added to the wells. For water controls and compound stocks/dilutions in water (DH LA, NAC) 1 μl was added to each well (1:50 dilutions). For DMSO controls and compound stocks/dilutions in DMSO (LA) 0.5 μl was added to each well (1:100 dilutions). […]

[9] = after 600 mg i.v. infusion, compared to pre-treatment values

visual scoring of well clearance (C. elegans [1]): some bacteria remaining
SMILES: O=C(O)CCCC[C@@H](S)CCS (racemic) [DHLA, Dihydrolipoic acid]
effects indicating increased sensory sensitivity (C. elegans [2]; even at highest concentration of 1:500): No obvious effects detected
percentage of LR5 responders at 6% (C. elegans [2]; second highest concentration (DHLA2)): relatively high
effect such as increased percentage of LR5 responders (C. elegans [3]; 1:1,000 or 1:2,500): No obvious effect detected
response of animals that show a LR5 response ('Responder ratios', 'A Speed responses') (C. elegans [3]; 1:2,500 concentration): slightly stronger response

SMILES: C[N+](C)(C)CC(O)CC(=O)[O-] (centres unmarked) [Carnitine]
tolerability and toxicity (mice and rats): good tolerability and limited toxicity
area of skin flap necrosis (rats [4]; group 1, 50 mg/kg/day for 1 week): 12.55 cm^2
area of skin flap necrosis (rats [4]; group 2, 100 mg/kg/day for 1 week): 9.23 cm^2

SMILES: N.N.[Cl][Pt][Cl] [Cisplatin]
Equilibrium time (rats [5]): 8.4 ± 0.8 s

SMILES: CCC(=O)O[C@H](CC(=O)[O-])C[N+](C)(C)C [L-Propionyl Carnitine]
decrease in mean pain score [6]: 83%
decrease in mean ulcer size (diameter) [6]: 48%
increase in mean pain free walking distance (PWD) [6]: 78%
Perfusion units [7, 9]: did not change significantly
TcPO [7, 9]: did not change significantly
resting TcPCO ([7]; after 600 mg i.v. infusion): no significant effects
TcPCO ([7]; at hypoxia point): 90.2 mm Hg
Mean laser-Doppler power spectrum ([7]; at rest, after 600 mg i.v. infusion): 0.89 units
Mean laser-Doppler power spectrum ([7]; during reperfusion, after 600 mg i.v. infusion): 2.24 units
TcPCO ([7]; during reperfusion): 103.5 mm Hg

SMILES: CC(=O)O[C@H](CC(=O)O)C[N+](C)(C)C.[Cl-] [NAC, N-Acetyl carnitine HCl]
toxicity (C. elegans [8]): No toxic effects
toxicity (C. elegans [8]; listed as N-Acetyl carnitine): no toxicity observed
effects indicating increased sensory sensitivity (C. elegans [2]; even at highest concentration of 8 mM): No obvious effects detected
effects indicating increased sensory sensitivity (C. elegans [3]; 8 mM or 4 mM): No effects detected
